Results taken from PMC11873125 (Scientific Reports, 2025).
“Also recorded” adds a separate entry of the source.

Tests used:
[1] = Solubility observation during SAR testing; assay type: physicochemical
[2] = tested on: LMNB1 in TRE-FLAG-LMNB1 MEF; assay: Primary HCS assay, LMNB1 intensity, dose-response; assay type: cell-based, mouse; details: DOX medium, 48 h, ten-point dose-response
TRE-FLAG-LMNB1 MEF = assay: Primary HCS assay, cell numbers; assay type: cell-based, mouse; details: 48 h
[3] = tested on: LMNB1 in TRE-FLAG-LMNB1 MEF; assay: Western blot of LMNB1 in TRE-FLAG-LMNB1 MEF; assay type: cell-based, mouse; details: 48 h, LMNB1/actin
[4] = tested on: LMNA/C in TRE-FLAG-LMNB1 MEF; assay: Primary HCS assay, LMNA/C intensity; assay type: cell-based, mouse; details: 48 h
LMNB1 = details: cited from earlier work
ADLD patient fibroblasts = assay: Antiproliferative activity and expanded toxicity measurements; assay type: cell-based, human; details: high density, two-day exposure
LMNB in HL-60 cells = details: cited from earlier work

COc1cccc(C2CC(c3ccccc3Cl)Nc3ncnn32)c1 (stereo not shown) [CID 663139]
Solubility (in words) [1]: caused solubility problems

COc1ccc(C2CC(c3ccccc3Cl)Nc3nc(N)nn32)cc1OC (stereo not shown) [CID 3154585]
Effect on LMNB1 levels in dose-response (in words) [2]: limited response at the highest concentration tested

COc1ccc(C2CC(c3ccc(Cl)cc3Cl)Nc3nc(N)nn32)cc1OC (stereo not shown) [CID 3154587]
Effect on LMNB1 levels in dose-response (in words) [2]: inactive

CCOc1ccccc1C1CC(c2ccccc2)Nc2nc(N)nn21 (stereo not shown) [CID 3512343]
Effect on LMNB1 levels in dose-response (in words) [2]: retained some activity

O=C(NCc1ccco1)c1cc2nc(-c3ccc4c(c3)OCO4)cc(C(F)(F)F)n2n1 [MolPort-001–493–770]
Effect on LMNB1 levels in dose-response (in words) [2]: very strong reduction of LMNB1, which was an artifact of image analysis

Oc1ccc(-c2nc(-c3ccncc3)c(-c3ccc(F)cc3)[nH]2)cc1 [SB202190]
Cellular toxicity (in words) (TRE-FLAG-LMNB1 MEF): no or low toxicity | Effect on LMNB1 levels in dose-response (in words) [2]: dose-dependent decreases in LMNB1 levels | Confirmation of LMNB1 reduction by Western blot (in words) [3]: concentration-dependently reduced both human-FLAG-LMNB1 and endogenous mouse LMNB1 | Effect on LMNA/C expression, selectivity (in words) [4]: selectively reduced LMNB1 over LMNA/C

Oc1c2ccccc2c2c3c(cccc13)N=N2 [SP600125]
Cellular toxicity (in words) (TRE-FLAG-LMNB1 MEF): no or low toxicity | Effect on LMNB1 levels in dose-response (in words) [2]: dose-dependent decreases in LMNB1 levels; also recorded: maximum response with SP600125 was small and the curve not sigmoidal | Confirmation of LMNB1 reduction by Western blot (in words) [3]: did not confirm | Effect on LMNA/C expression, selectivity (in words) [4]: selectively reduced LMNB1 over LMNA/C

CCOc1ccc(N([C@@H](C)C(=O)Nc2ccc(Br)c(C)c2)S(C)(=O)=O)cc1 [UPCMLDCBRC1002139]
Effect on LMNB1 levels in dose-response (in words) [2]: not tolerated

Cc1c(CNC(=O)c2nn3c(c2Cl)N[C@@H](c2ccccc2)C[C@@H]3C(F)(F)F)cnn1C [UPCMLDCBRC1040264]
Effect on LMNB1 levels in dose-response (in words) [2]: abolished activity

COc1ccccc1NC(=S)N[C@@H](NC(=O)c1cccc(Br)c1)C(Cl)(Cl)Cl [UPCMLDCBRC1049772]
Effect on LMNB1 levels in dose-response (in words) [2]: abolished activity

CO[C@H]1/C=C\C=C(/C)C(=O)NC2=CC(=O)C(NCCN(C)C)=C(C[C@@H](C)C[C@H](OC)[C@H](O)[C@@H](C)/C=C(\C)[C@@H]1OC(N)=O)C2=O [alvespimycin]
Cellular toxicity (in words) (TRE-FLAG-LMNB1 MEF): significant cellular toxicity | Effect on LMNB1 (in words) (LMNB1): reduced LMNB1

CC[C@@]1(O)C(=O)OCc2c1cc1n(c2=O)Cc2cc3ccccc3nc2-1 [camptothecin, (S)-( +)-camptothecin]
Cellular toxicity (in words) (TRE-FLAG-LMNB1 MEF): cellular toxicity | Effect on cell numbers, nuclear morphology and cell size (in words) (ADLD patient fibroblasts): reduced cell numbers and caused cells to enlarge | Effect on LMNB1 levels in dose-response (in words) [2]: dose-dependent decreases in LMNB1 levels | Effect on LMNB levels (in words) (LMNB in HL-60 cells): reduce LMNB levels in HL-60 cells
